Read-outs that look alike come from different tables or passages of the source. Starred links: 1 amine or outer side, 2 acyl side, 3 side chain; linkers in the order of their positions; H or OH if unused. Positions of bridges follow the written chain, without caps; N, C: chain ends. Non-standard residues stand in square brackets, D forms with d. Residues, ends and D or L forms follow the SMILES beside them. *: point of attachment. Leu(4,5-dehydro) = C=C(C)C[C@H](N)C(=O)O; Oic = O=C(O)[C@@H]1C[C@@H]2CCCC[C@@H]2N1; d(tBuAla) = CC(C)(C)C[C@@H](N)C(=O)O; dVal(3-OH) = CC(C)(O)[C@@H](N)C(=O)O; tBuAla = CC(C)(C)C[C@H](N)C(=O)O; R5 = C=CCCC[C@@](C)(N)C(=O)O; S5 = C=CCCC[C@](C)(N)C(=O)O; X1 = O=C(CC(O)CN[*:1])[*:2]; 4Amb = NCc1ccc(C(=O)O)cc1; X3 = NCC(O)CC(=O)*
Experiments:
[1] = Aggregation / solubility at 1 mM; type: physicochemical; settings: summary calls it solubility at 1mM
Description: (§1) The solubilities of the synthesized compounds were determined experimentally (Supplementary Table 2). Most compounds were highly soluble at a 1 mM concentration; however, some compounds tended to form aggregates. These compounds were excluded from further studies. In addition, we experimentally determined the lipophilicity of each compound, logP(oct/wat)=log(soluteoct/solutewat ), which is the partition coefficient of a compound between aqueous (water) and lipophilic (octanol) phases (Supplementary Table 2).

[2] = Lipophilicity of peptides, logP(oct/wat); type: physicochemical
Description: as §1
Lipophilicity of peptides. Two separate solutions were obtained: an aqueous phosphate buffer with saturated n-octanol, and an n-octanol solution with saturated phosphate buffer. Peptides were then dissolved and diluted in the phosphate buffer. Different partitions were then made with different n-octanol to water ratio before shaking for an hour at room temperature. The aqueous phase and n-octanol were allowed to equilibrate, and each phase was extracted and analyzed for peptide concentrations. The ratio of peptide concentration in n-octanol to that in water is expressed as log(P).

[3] = target: EB3 interactions with IP3R3-GFP (Homo sapiens, UniProt Q9UPY8); experiment: Competitive binding: inhibition of EB3 interaction with IP3R3-GFP in vitro; type: biochemical; settings: 250 nM
Chain of EB3 interactions with IP3R3-GFP (Q9UPY8 whole entry): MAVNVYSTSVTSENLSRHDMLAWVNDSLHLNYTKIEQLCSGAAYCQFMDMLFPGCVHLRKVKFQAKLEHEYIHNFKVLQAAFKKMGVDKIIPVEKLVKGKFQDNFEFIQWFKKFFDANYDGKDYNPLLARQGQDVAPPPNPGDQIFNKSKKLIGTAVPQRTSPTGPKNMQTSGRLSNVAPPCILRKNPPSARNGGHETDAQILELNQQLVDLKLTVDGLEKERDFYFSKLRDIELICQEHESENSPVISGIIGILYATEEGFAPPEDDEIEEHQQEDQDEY
From the text: We tested the efficacy of twenty-three compounds in inhibiting EB3 interactions with IP3R3-GFP via an in vitro approach developed by us[12],[13]. […] Guided by NMR studies, we predicted the binding pose of 109 to EB3 via AutoDock Vina[13],[24],[25].

[4] = test system: human primary microvascular lung endothelial cells (HLMVECs); experiment: Peptide uptake in endothelial cells; type: cell-based
Description: We next analyzed the cell-penetrating properties of the selected compounds, hereafter referred to as vascular therapeutics (VT). The rate of uptake of 5’6-FAM (fluorescein)-labeled compounds by human primary microvascular lung endothelial cells (HLMVECs) was determined via confocal fluorescence live-cell imaging. FAM-labeled Myr-EBIN[13] and fluorescein alone were used as positive and negative controls, respectively. The t½ uptake and maximal uptake were determined from changes in the integrated fluorescence intensity over a 30 min period (Fig. 2a and Supplementary Fig. 1a). […] Like Myr-EBIN, compounds VT-107, -108 and -109 presented the highest uptake rates of 92.5 ± 5.0%, 82.5 ± 2.8% and 94.7 ± 4.9%, respectively, whereas the linear compound VT-101 was taken up less efficiently, with an average uptake of 58.4 ± 2.7% (Fig. 2a). […] The t½ uptake, however, varied between the tested compounds (Fig. 2b). The stapled compounds presented the shortest t½ uptake, whereas the linear compounds presented the longest t½ (Fig. 2b).
Peptide uptake in endothelial cells. The rate of peptide uptake by primary human microvascular endothelial cells was measured using 5’6FAM (fluorescein)-labeled peptides and confocal fluorescence live-cell imaging, with fluorescein alone used as a negative control. Changes in intracellular fluorescence for each peptide were monitored over time, and saponin, a detergent, was added at the end of the experiment to induce full uptake of the tested peptides by endothelial cells. The fluorescence intensity inside the cells was tracked over time, and the half-time uptake (t1/2) and maximum uptake were calculated.

[5] = Stability of selected EB3 inhibitors in human blood plasma; type: in vitro ADME
Description: Supplementary Table 3. Stability of selected EB3 inhibitors in human blood plasma. The indicated inhibitors were incubated with human plasma at 37 °C and samples were taken at the indicated time points. Plasma proteins were precipitated with ice-cold perchloric acid (60%); the concentration of compounds was measured in supernatant using a liquid chromatography-tandem mass spectrometry (LC-MS/MS). See also Figures 1 and 2.

[6] = Stability at various storage conditions; type: physicochemical; settings: for amount of peptide remaining after storage: phosphate-buffered sterile saline, 8 days, LC-MS/MS
Description: Stability assay of peptides in various storage conditions. Peptides were dissolved and stored in phosphate-buffered sterile saline at -20, 4, 37, and 60°C for 8 days. The amount of peptide remaining after the study was analyzed by LC-MS/MS.
Supplementary Table 5. Stability of selected compounds at various storage conditions. Preliminary accelerated storage stability at various temperature conditions for the selected inhibitors was tested in phosphate-buffered sterile saline at -20 °C, 4 °C, 37 °C and 60 °C for 8 days. See also Figures 1 and 2.

logD [2] | half-time uptake t1/2 [4] [min] | remaining at 1.5 h ([5]; human, plasma) [%] | remaining at 20 h ([5]; human, plasma) [%] | storage stability [6] | Compound | Aggregation at 1mM [1] | logD ([2]; shake-flask n-octanol/phosphate buffer, mutually saturated, shaken 1 hour at room temperature, read-out: Log P (Octanol/Water)) | inhibition at 0.25 µM [3] [%] | uptake, percentage of the maximal values obtained following saponin treatment ([4]; 5’6-FAM-labeled compounds, HLMVECs, confocal live-cell imaging over 30 min, mean ± SEM, n = 16–45 cells per group) [%] | half-time uptake t1/2 ([4]; 5’6-FAM-labeled compounds, HLMVECs, confocal live-cell imaging, n = 3 independent experiments) [min] | penetration of the cell membrane ([4]; 5’6-FAM-labeled compounds, HLMVECs, no cell internalization signal) | remaining at 1.5 h ([5]; human plasma, 37 °C, 1.5 hr, perchloric acid (60%) precipitation, LC-MS/MS, read-out: compound remaining in human plasma) [%] | remaining at 20 h ([5]; human plasma, 37 °C, 20 hr, perchloric acid (60%) precipitation, LC-MS/MS, read-out: compound remaining in human plasma) [%] | amount of peptide remaining after storage ([6]; 4 °C) [%] | amount of peptide remaining after storage ([6]; 37 °C) [%] | amount of peptide remaining after storage ([6]; 60 °C) [%] | amount of peptide remaining after storage ([6]; -20 °C) [%] | penetration of the cell membrane [4]
– | – | – | – | – | C=C(C)C[C@@H]1NC(=O)[C@](C)(NC(=O)c2ccc(CNC(=O)CC(O)CN)cc2)CCC/C=C\CCC[C@@](C)(C(=O)N[C@H](CC(C)(C)C)C(=O)O)NC(=O)CC(O)CNC(=O)[C@@H]2C[C@@H]3CCCC[C@@H]3N2C1=O (stereo partly drawn) [compound 107, (2R)-2-((8S,17R,20S,22aS,26aS,27aS,Z)-17-(4-((4-amino-3-hydroxybutanamido)methyl)benzamido)-4-hydroxy-8,17-dimethyl-20-(2-methylallyl)-1,6,18,21-tetraoxo 2,3,4,5,6,7,8,9,10,11,14,15,16,17,18,19,20,21,22a,23,24,25,26,26a,27,27a-hexacosahydro-1H-[1,4,7,12]tetraazacyclotricosino[4,5-a]indole-8-carboxamido)-4,4-dimethylpentanoic acid] ({X3-4Amb}-[R5][Leu(4,5-dehydro)][Oic][X1][S5][d(tBuAla)]-OH; staple (Z) 1-5) | weak signal | 0.51 | 65 | 92.5 ± 5.0 | 0.21 ± 0.40 | able to penetrate the cell membrane without the addition of a cell internalization signal | 87 | 65 | 88 | 85 | 85 | 94 | –
0.52 | 9.58 ± 0.09 | 87 | 85 | stable | CC(C)(C)C[C@H](NC(=O)CC(O)CNC(=O)[C@@H]1C[C@@H]2CCCC[C@@H]2N1C(=O)[C@H](CC(C)(C)C)NC(=O)c1ccc(CNC(=O)[C@H](NC(=O)[C@H](N)Cc2ccccc2)C(C)(C)O)cc1)C(=O)O (stereo partly drawn) [compound 101, (2S)-2-(4-((2S,3aS,7aS)-1-((S)-2-(4-(((R)-2-((R)-2-amino-3-phenylpropanamido)-3-hydroxy-3-methylbutanamido)methyl)benzamido)-4,4-dimethylpentanoyl)octahydro-1H-indole-2-carboxamido)-3-hydroxybutanamido)-4,4-dimethylpentanoic acid.] (H-[dF][dVal(3-OH)][4Amb][tBuAla][Oic][X1][tBuAla]-OH) | weak signal | – | 41 | – | – | – | – | – | – | – | – | – | able to penetrate the cell membrane without the addition of a cell internalization signal
